Assay results reported in PubChem BioAssay (NCI).
Values joined by “and” are separate entries in the source; they are usually repeats but may differ in a detail not shown here. Equal values may be shown once.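 Dose response: 5 concentrations. Exposure: 48 h. Format: 96-well plates. Endpoint: linear interpolation; highest concentration if not reached. At the GI50, growth is halved. Definition used: TGI = concentration required for complete inhibition of growth.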 *1 amine or outer side, *2 acyl side, *3 side chain or, on linkers, in order; H or OH if unused. Where a SMILES comes first, the peptide text is derived from it. Bridges are numbered along the chain shown (N, C = ends). Roman numbers before positions name the chains, in order. [ ]: non-standard residue; d: D form. Actinocin(9to1) = Cc1c2oc3c(C)ccc(C(=O)[*:1])c3nc-2c(C(=O)[*:2])c(N)c1=O; NMeF = CN[CH](Cc1ccccc1)C(=O)O; Sar = CNCC(=O)O

Key:
Assay in all cases: NCI-60 cell line screen, 48 h
SNB-75 CNS = system: SNB-75 CNS
NCI/ADR-RES ovarian = system: NCI/ADR-RES ovarian
DU-145 prostate = system: DU-145 prostate
HT29 colon = system: HT29 colon
UACC-62 melanoma = system: UACC-62 melanoma
U251 CNS = system: U251 CNS
UACC-257 melanoma = system: UACC-257 melanoma
T-47D breast = system: T-47D breast
NCI-H460 lung = system: NCI-H460 lung
PC-3 prostate = system: PC-3 prostate

Structure (SMILES)	GI50 (SNB-75 CNS) [µM]	TGI (SNB-75 CNS) [µM]	GI50 (NCI/ADR-RES ovarian) [µM]	TGI (NCI/ADR-RES ovarian) [µM]	GI50 (DU-145 prostate) [µM]	TGI (DU-145 prostate)	GI50 (HT29 colon)	TGI (HT29 colon) [µM]	GI50 (UACC-62 melanoma)	TGI (UACC-62 melanoma)	GI50 (U251 CNS)	TGI (U251 CNS)	GI50 (UACC-257 melanoma) [µM]	TGI (UACC-257 melanoma) [µM]	GI50 (T-47D breast) [µM]	TGI (T-47D breast)	GI50 (NCI-H460 lung)	TGI (NCI-H460 lung)	GI50 (PC-3 prostate) [µM]	TGI (PC-3 prostate)
CCN(c1cc(C#CCN2CCOCC2)cc(C(=O)NCc2c(C)cc(C)[nH]c2=O)c1C)C1CCC(N(C)CCOC)CC1 (configuration not stated)	53.1	> 100	> 100	> 100	> 100	> 100 µM	> 100 µM	> 100	> 100 µM	> 100 µM	> 100 µM	> 100 µM	> 100	> 100	> 100	> 100 µM	> 100 µM	> 100 µM	> 100	> 100 µM
Cc1coc2c1C(OC(=O)C(C)C)C1(C)C(C)CCC(O)C1C2=O (configuration not stated)		> 100		> 100		> 100 µM		> 100		> 100 µM		> 100 µM		> 100		> 100 µM		> 100 µM		> 100 µM
O=C(O)/C(=C\c1ccncc1)c1cccc2ccccc12		> 100		> 100		> 100 µM		> 100				> 100 µM		30.7		> 100 µM		> 100 µM		> 100 µM
O=Nc1c(-c2c(O)[nH]c3ccc(Br)cc23)[nH]c2ccccc12	7.58	28.3	4.24	63.4	3.01	11.8 µM	8.3 µM	> 100	4.96 µM	15.1 µM	4.83 µM	23.1 µM	15	> 100	12.1	> 100 µM	2.4 µM	5.99 µM	3.38	78.9 µM
CC(=O)c1cc(O)c2ccccc2c1O	15.7	32.8	24.5	67.5	18.9	33 µM	15.5 µM	37	16.2 µM	32.7 µM	18.6 µM	33.6 µM	17.7	34.1	17.4	41.4 µM	27 µM	76.8 µM	20.3	50.8 µM
Cn1cc(C2=C(N3CCOCC3)C(=O)NC2=O)c2ccccc21	> 25	> 25	> 25	> 25	> 25	> 25 µM	> 25 µM	> 25	> 25 µM	> 25 µM	> 25 µM	> 25 µM	> 25	> 25	> 25	> 25 µM	> 25 µM	> 25 µM	> 25	> 25 µM
O=C(O)Cn1cc([N+](=O)[O-])c(=O)c2ccccc21		> 100		> 100		> 100 µM		> 100		> 100 µM		> 100 µM		> 100		32.8 µM		> 100 µM		> 100 µM
O=C(CCc1ccc(O)cc1)N/N=C/c1cc(Br)ccc1O	5.25	> 100	2.34	> 100	3.4	> 100 µM	23.7 µM	99.4	2.44 µM	7.02 µM	3.2 µM	> 100 µM	2.62	11.4	3.74	41.6 µM	2.93 µM	14.2 µM	4.14	> 100 µM
O=C(O)C(Oc1nc(=S)[nH]c(=S)[nH]1)(c1ccc(Cl)cc1)c1ccc(Cl)cc1		> 100		> 100		> 100 µM		> 100		> 100 µM		> 100 µM		> 100		> 100 µM		> 100 µM		> 100 µM
Cc1ccc(Sc2cc3c(oc2=O)-c2ccccc2OC3O)cc1 (configuration not stated)	30.5	81.2	25.2	60.5	21.8	45.2 µM	30.9 µM	> 100	21.2 µM	49.8 µM	21.1 µM	42.3 µM	22.3	43.8	24.8	81.2 µM	22.4 µM	54.5 µM	28	76.5 µM
CCCCCCCCCCCCCCCC1=NC(C)(C)CN1C(C)C	1.47	2.94	1.78	4.33	1.56	2.9 µM			1.67 µM	3.14 µM	1.51 µM	2.84 µM	1.77	3.31	1.93	4.54 µM	1.73 µM	3.11 µM	1.37	3.68 µM
C/C(=N\NC(=S)N(C)C)c1ccccn1		14.4	0.000321	2.31		0.993 µM and 3.17 µM	0.000846 µM	15.8		2.38 µM	0.00245 µM	6.73 µM	0.000438			11.5 µM	0.0214 µM	4.09 µM	0.132	15.9 µM
CCN(CC)C(=S)[S][Bi]([S]C(=S)N(CC)CC)[S]C(=S)N(CC)CC	0.213	0.527	0.277	0.85	1.28	2.59 µM	0.052 µM	0.229	0.252 µM	0.806 µM	1.12 µM	2.34 µM	0.178	0.384	0.122	0.341 µM	1.44 µM	3.07 µM	0.263	1.04 µM
N#CC1C=Cc2c(ccc3ccccc23)N1C(=O)c1ccccc1 (configuration not stated)	0.226	63.8	0.187		0.26	1.97 µM	0.0701 µM	3.82	0.243 µM	> 100 µM	0.387 µM	> 81.6 µM	14.7	> 100	0.103	> 100 µM	0.191 µM	7.56 µM	0.333	> 100 µM
Nc1ncc(-c2cccc(S(N)(=O)=O)c2)c2scc(-c3ccc(F)c(Cl)c3)c12	6.11	> 23	7.14	> 25	5.55	15.3 µM	5 µM	15.3	5.17 µM	11.7 µM	6.77 µM	> 17.5 µM	6.46	17.2	3.59	11 µM	3.8 µM	8.08 µM	6.83	> 20.6 µM
CC(C)(C)c1ccc(NS(=O)(=O)c2ccc3nc(NC(=O)c4cnccn4)[nH]c3c2)cc1	1.75	6.49	1.92	8.59	3.17	11.5 µM	1.79 µM	12.6	1.11 µM	13.2 µM	3.96 µM	19.6 µM	10.8	26	4.37	23.7 µM	2.59 µM	11 µM	1.65	10.6 µM
C[C@@H]1COCCN1c1cc(C2(O)C[C@H]3CC[C@@H](C2)O3)c2cnn(-c3ccn[nH]3)c2n1 (some centres not stated)	0.043	0.411	0.154	1.1	0.0553	2.46 µM	0.181 µM	> 100	0.05 µM	0.384 µM	0.137 µM	8.62 µM	0.168	1.42	0.122	0.734 µM	0.0334 µM	1.43 µM	0.277	24.4 µM
Cc1ccc(-c2cc(O)c(-c3ccc(C)cc3C)cc2O)c(C)c1	5.46	19.7	4.5	32.9	11.2	28.2 µM	4.73 µM	17.1	4.23 µM	19.8 µM	2.32 µM	17.3 µM	5.81	19.1	5.24	42.9 µM	0.923 µM	15.2 µM	3.95	57.1 µM
CC[C@H](C)C(=O)O[C@H]1C[C@H](O)C=C2C=C[C@H](C)[C@H](CC[C@@H](O)C[C@@H](O)CC(=O)O)[C@H]21	> 100	> 100	> 100	> 100	> 100	> 100 µM	> 100 µM	> 100	> 100 µM	> 100 µM	> 100 µM	> 100 µM	> 100	> 100	> 100	> 100 µM	> 100 µM	> 100 µM	> 100	> 100 µM
C=CC1=C(C)C2=NC1=CC1=NC(=C(CC)/C1=C\O)C=C1N=C3C(=C1C)C(=O)[C@H](C(=O)OC)C3=C1NC(=C2)[C@@H](C)[C@@H]1CCC(=O)O		> 100		> 100		> 100 µM		> 100		> 100 µM		> 100 µM		> 100		> 100 µM		> 100 µM		> 100 µM
CCCCCn1c(C)cc(/C=C\c2ccc3cc(C)ccc3[n+]2C)c1C	0.0791	0.975	2.11	> 34.4	0.0586	1.3 µM	0.0645 µM	1.19	0.243 µM	1.1 µM	0.0345 µM	1.52 µM	0.367	1.45	0.0299	0.751 µM	0.113 µM	0.839 µM	0.0623	1.03 µM
O=c1oc2c(C(F)(F)F)cccc2cc1-c1csc(Nc2ccc(OCCF)cc2)n1	0.0302	12	0.0401	66.5	0.0462	> 50.8 µM	0.032 µM	1.02	0.0507 µM	> 38.9 µM	0.0376 µM	12 µM	0.653	> 100	0.0797	> 100 µM	0.0357 µM		0.0446	> 100 µM
CC(C)=CCCC(C)C1=C(O)C(=O)C(C)=CC1=O (configuration not stated)		37.6		> 49.1		33.3 µM		> 64		27.9 µM		> 56.1 µM		26.1		3.92 µM		> 100 µM		33 µM
O=C(c1ccccc1)c1c(C(F)(F)F)n([O-])c2ccc(C(F)(F)F)cc2[n+]1=O	0.52	1.13	0.239	0.688	0.289	0.698 µM	0.177 µM	0.349	0.665 µM	1.86 µM	0.166 µM	0.305 µM	0.295	0.968	0.372	1.08 µM	0.232 µM	0.587 µM	0.0948	0.229 µM
CCN(Cc1c(Cl)cccc1Cl)c1ccc(CO)c(Cl)c1	11	25.3	11.8	27.3	14.4	27.9 µM	2.43 µM	15.3	0.0406 µM	0.741 µM	0.372 µM	15.3 µM	< 0.0392	0.211	< 0.017	0.18 µM	0.171 µM	13.9 µM	11.3	23.9 µM
Cc1c2oc3c(C)ccc(C(=O)NC4C(=O)NC(C(C)C)C(=O)N5CCCC5C(=O)N(C)CC(=O)N(C)C(Cc5ccccc5)C(=O)OC4C)c3nc-2c(C(=O)NC2C(=O)NC(C(C)C)C(=O)N3CCCC3C(=O)N(C)CC(=O)N(C)C(Cc3ccccc3)C(=O)OC2C)c(N)c1=O (configuration not stated) (I: TVP[Sar][NMeF] / II: TVP[Sar][NMeF]; ester I:1-I:C, II:1-II:C; linker I:N-II:N via Actinocin(9to1); configuration not given here)		0.0645		> 1		< 0.01 µM and 0.0698 µM	< 0.01 µM and 0.00123 µM		< 0.01 µM and 0.00426 µM	< 0.01 µM and 0.0188 µM	< 0.01 µM and 0.0022 µM	< 0.0435 µM and 0.159 µM				< 0.01 µM and 0.0419 µM	< 0.01 µM and 0.00074 µM	< 0.01 µM and 0.0206 µM		0.0325 µM and 0.142 µM
